{"source": "patent US20110319484A1", "about": "“NEUROPROTECTIVE COMPOUNDS” (Parque Tecnologico de Ciencias de la Salud, priority 2009, published 2011)", "key": {"[1]": {"tested_on": "human neuroblastoma SK-N-MC cells", "test": "Protection against neuronal death induced by oxidative stress (XXO), WST-1 test", "format": "cell-based", "conditions": "XXO 10 μM-60 mU/ml, 22 h, at 10 μg/ml, protection at 4, 10 and 20 μg/ml", "experimental": "To perform this assay, the inhibition caused by the NST0005 compound [(1S,3R,7S,8S,8aR)-1,2,3,7,8,8a-hexahydro-3,7-dimethyl-8-[2-[(2R,4R)-tetrahydro-4-hydroxy-6-oxo-2H-pyran-2-yl]ethyl-1-naphthalenyl 2,2-dimethyl-propanoate] of cell death caused by the treatment with xanthine/xanthine oxidase (XXO) which, as has already been mentioned, generates oxidative damage (produces free radicals such as hydrogen peroxide, superoxide anion, hydroxyl radical) which triggers cell death, was analyzed. These cells [SK-N-MC], not exceeding 15 passages, were seeded on 96-well plates treated for adherent cells with a cell concentration of 5×10^4 cells/well; 3 wells of the plate were seeded for each condition of the assay.\nAfter 24 h of cell incubation at 37° C. and 5% CO2, the cell treatments were performed with 100 μl of total volume for the following conditions: (i), control (culture medium); (ii), xanthine/xanthine oxidase (XXO) [10 μM-60 mU/ml]; and (iii), XXO [10 μM-60 mU/ml] and NST0005 at different concentrations [4, 10, 20 and 40 μg/ml].\nThe cells were incubated (at 37° C. and 5% CO2) with these treatments for 22 h, after which time the WST-1 reagent (Roche) was added. […] The formazan which is formed can be detected colorimetrically since it has an absorbance of 440 nm. The reading was taken in a plate reader at 440 nm 2 hours after adding the reagent. […]"}, "[2]": {"tested_on": "human neuroblastoma SK-N-MC cells", "test": "Protection against neuronal death induced by endoplasmic reticulum stress (tunicamycin), WST-1 test", "format": "cell-based", "conditions": "tunicamycin 20 μg/ml, 22 h, at 20 μg/ml, protection at 4, 10, 20 and 40 μg/ml", "experimental": "To that end, an assay was performed on human neuroblastoma SK-N-MC cells in culture from the ATCC (HTB-10); in all cases strict rules of sterility were followed and the manipulation was performed in class II biological safety cabinets following European standard EN 12469. The cells were maintained in MEM culture medium supplemented with 1 mM sodium pyruvate, 2 mM L-glutamine, 0.1 mM non-essential amino acids, 0.05 mg/ml gentamicin and 10% fetal bovine serum.\nThe inhibition caused by the compound (1S,3R,7S,8S,8aR)-1,2,3,7,8,8a-hexahydro-3,7-dimethyl-8-[2-[(2R,4R)-tetrahydro-4-hydroxy-6-oxo-2H-pyran-2-yl]ethyl-1-naphthalenyl 2,2-dimethylpropanoate (NST0005) of cell death caused by treatment with tunicamycin (Tm), which generates endoplasmic reticulum stress by inhibition of N-glycosylation of proteins, which triggers cell death, was analyzed. […]\nThe cells were incubated (at 37° C. and 5% CO2) with these treatments for 22 h, after which time the WST-1 reagent (Roche) was added. The WST-1 Test, as has been previously mentioned, is based on the measurement of the metabolic activity; the metabolically active (live) cells reduce tetrazolium salt to formazan by means of the succinate-tetrazolium reductase system (of the mitochondrial respiratory chain) and the formazan which is formed can be detected colorimetrically since it has an absorbance of 440 nm. […]"}, "[3]": {"tested_on": "caspase 3/7 activation in SK-N-MC cells", "test": "Inhibition of camptothecin-induced caspase 3/7 activation (Apo-ONE kit)", "format": "cell-based, human", "conditions": "Homo sapiens, 24 h pretreatment at 100 μg/ml, then camptothecin 50 μM 6 h", "experimental": "To that end, the inhibition caused by (1S,3R,7S,8S,8aR)-1,2,3,7,8,8a-hexahydro-3,7-dimethyl-8-[2-[(2R,4R)-tetrahydro-4-hydroxy-6-oxo-2H-pyran-2-yl]ethyl-1-naphthalenyl 2,2-dimethylpropanoate (NST0005) of apoptosis caused by the treatment with camptothecin (Campt) on the SK-N-MC cells in culture was analyzed following the working conditions specified in section 3.1. Apoptosis can be quantified by measuring effector caspase activation. Caspases (proteins belonging to the cysteine-protease group) mediate the cleavage of a series of proteins triggering the signaling cascade which leads cells to apoptosis. […] The active cellular caspases 3 or 7 cause the cleavage of the substrate, emitting fluorescence which is read by means of a fluorometer.\nThe effect of the pretreatment of the NST0005 compound at 40 and 100 μg/ml on caspase 3/7 activation caused by 50 μM of camptothecin (Campt) in the SK-N-MC cells was thus analyzed. […]\nThe cells were incubated (at 37° C. and 5% CO2) with these treatments for 6 h, after which time the lysis buffer and the substrate rhodamine 110 were added at the concentrations specified by the manufacturer; they were incubated at room temperature for 30 minutes and the cells were then frozen at −20° C. overnight. They were thawed the next day and the reading of the plate was taken in a fluorometer at 499 nm for excitation and 521 nm for emission."}}}
{"smiles": "C[C@H]1C=C2C=C[C@H](C)[C@H](CC[C@@H]3C[C@@H](O)CC(=O)O3)[C@H]2[C@@H](OC(=O)C(C)(C)C)C1", "note": "[NST0005]", "values": [{"measurement": "maximum reduction of the percentage of cell death relating to death caused by XXO", "setting": "[1]", "value": 50, "unit": "%"}, {"measurement": "maximum reduction of the percentage of cell death relating to death caused by Tunicamycin", "setting": "[2]", "value": 38, "unit": "%"}, {"measurement": "inhibition at 100 µg/mL", "setting": "[3]", "value": 33, "unit": "%"}]}
